Data reported in ChEMBL document CHEMBL1141762, “Morphinane alkaloids with cell protective effects from Sinomenium acutum” (J Nat Prod, 2005).
Calls of active or inactive are those of the source. The calls are words filed in the database; no cut-off is given here.

system: PC-12; test: Cell protective activity against rat PC12 cells assessed as protection against H2O2-induced injury; type: functional, cell-based

Row | Compound | Activity
1 | COC1=C[C@]23CCN(C)[C@H](Cc4ccc(OC)c(O)c42)C3=CC1=O | Active
2 | COC1=C[C@H]2[C@H]3Cc4ccc(OC)c(O)c4[C@@]2(CCN3)CC1=O | Active
3 | COC1=C[C@H]2[C@H]3Cc4ccc(OC)c(O)c4[C@@]2(CCN3)C[C@@H]1O | Active
